Measurements reported in patent US4086417A, “Cytidine nucleotide derivatives” (Asahi Kasei Kogyo Kabushiki Kaisha, priority 1974, dated 1978).
Converted amounts (≈) assume the structure as drawn. Structures can show the parent of a compound that is named as a salt. Where two headings read alike, the source gives them in different places.

Experiments:
[1] = cited from earlier work
leukemia L-1210 [2] = details: background; cited from earlier work
deoxycytidine deaminase = details: background; cited from earlier work
leukemia L-1210 [3] = assay: Antitumour activity in mice inoculated intraperitoneally with leukemia L-1210 (survival, T/C); type: in vivo, CDF-1 male mice; details: Mus musculus, L1210, ip, directly after injection of L-1210, after 2 days and after 6 days; for response vs control in vivo at 100 mg/kg: 100 mg/kg i.p.; for response vs control in vivo at 200 mg/kg: 200 mg/kg i.p.; for response vs control in vivo at 400 mg/kg: 400 mg/kg i.p.
Protocol: The antitumour activity for mice of the test material was evaluated by means of survival rate comparison, T/C (%), that is, 100 times the mean survival period of the groups injected with the test material divided by the mean survival period of the comparison groups which were not injected with the test material.
Further, for comparison, the following materials were also subjected to the same biological test: […]

[4] = Solubility test: solubility in water; type: physicochemical
Text: In the aforesaid examples, the products were obtained as white solids.
In Table 1, -Ara-C means "-1-β-D-arabinofuranosylcytosine" and -5'-Pna and -5'-PNa2 mean "-1-β-D-arabinofuranosylcytosine-5'-phosphate monosodium salt" and "-1-β-D-arabinofuranosylcytosine-5'-phosphate disodium salt," respectively.

solubility [4] [µg/mL] | Solubility in water [4] [mg/mL] | Solubility in water ([4]; monosodium salt) [mg/mL] | SMILES | Biological half life / excretion (in words) ([1]; in vivo) | Antileukemial activity (in words) (leukemia L-1210 [2]) | Deamination / resistance to deaminase (in words) (deoxycytidine deaminase) | Biological half life / excretion (in words) ([1]; background) | response vs control in vivo at 100 mg/kg (leukemia L-1210 [3]) [%] | response vs control in vivo at 200 mg/kg (leukemia L-1210 [3]) [%] | response vs control in vivo at 400 mg/kg (leukemia L-1210 [3]) [%]
50 (≈ 98.5 µM) |  |  | CCCCCCCC/C=C\CCCCCCCC(=O)Nc1ccn([C@@H]2O[C@H](CO)[C@@H](O)[C@@H]2O)c(=O)n1 [N^4 -Oleoyl-Ara-C] |  |  |  |  | 261 | 135 | 94
 | > 30 |  | CCCCCCCCCCCCCCCC(=O)Nc1ccn([C@@H]2O[C@H](COP(=O)(O)O)[C@@H](O)[C@@H]2O)c(=O)n1 [N^4 -Palmitoyl-5'-PNa, N^4-palmitoyl-1-β-D-arabinofuranosylcytosine-5'-phosphate monosodium] |  |  |  |  | > 349 | > 342 | 98
10 (≈ 20.8 µM) |  |  | CCCCCCCCCCCCCCCC(=O)Nc1ccn([C@@H]2O[C@H](CO)[C@@H](O)[C@@H]2O)c(=O)n1 [N^4 -Palmitoyl-Ara-C, N^4-palmitoyl-1-β-D-arabinofuranosylcytosine] |  |  |  |  | > 346 | 83 | 78
< 10 |  |  | CCCCCCCCCCCCCCCCCC(=O)Nc1ccn([C@@H]2O[C@H](CO)[C@@H](O)[C@@H]2O)c(=O)n1 [N^4 -Stearoyl-Ara-C, N^4-stearoyl-1-β-D-arabinofuranosylcytosine] |  |  |  |  | > 274 | 123 | 111

Second part, the compound before the results:

SMILES | solubility [4] [µg/mL] | Solubility in water [4] [mg/mL] | Solubility in water ([4]; monosodium salt) [mg/mL] | Biological half life / excretion (in words) ([1]; in vivo) | Antileukemial activity (in words) (leukemia L-1210 [2]) | Deamination / resistance to deaminase (in words) (deoxycytidine deaminase) | Biological half life / excretion (in words) ([1]; background) | response vs control in vivo at 100 mg/kg (leukemia L-1210 [3]) [%] | response vs control in vivo at 200 mg/kg (leukemia L-1210 [3]) [%] | response vs control in vivo at 400 mg/kg (leukemia L-1210 [3]) [%]
N=c1ccn2c(n1)O[C@H]1[C@H](O)[C@@H](CO)O[C@H]12 [2,2'-ANHYDROCYTOSINE ARABINOSIDE, 2,2'-anhydrocytosine arabinoside] |  |  |  | the biological half life of this derivative is as short as that of cytosine arabinoside | does not have antileukemial activity | SHOWS HIGH RESISTANCE TO THE DEAMINOSE |  |  |  | 
Nc1ccn([C@@H]2O[C@H](CO)[C@@H](O)[C@@H]2O)c(=O)n1 [Ara-C, 1-β-D-arabinofuranosylcytosine] |  |  |  |  | one of the most effective known antileukemial agents | readily converted into uracil arabinoside | the biological half life of the medicament is short | 127 | 136 | 164
CCCCCCCCCCCCCCCCCC(=O)Nc1ccn([C@@H]2O[C@H](COP(=O)(O)O)[C@@H](O)[C@@H]2O)c(=O)n1 [N^4 -Stearoyl-5'-PNa, N^4-stearoyl-1-β-D-arabinofuranosylcytosine-5'-phosphate monosodium salt] |  |  | > 10 |  |  |  |  | > 363 | > 338 | 104
O=c1ccn([C@@H]2O[C@H](CO)[C@@H](O)[C@@H]2O)c(=O)[nH]1 [uracil arabinoside] |  |  |  |  | possesses no antileukemial activity |  |  |  |  | 
